Results from patent US20230313199A1, “TARGET FOR MODULATING BODY MASS” (Massachusetts Institute of Technology, priority 2020, published 2023).

Experiments:
NTD of human MFSD7C = molecular target: T1, NTD of human MFSD7C (Homo sapiens, UniProt Q9UPI3); experiment: Gel-filtration assay of NTD and heme; assay type: binding; conditions: Superdex 75; absorbance 380 nm, 415 nm and 230 nm
T1 construct: Plasmid harboring GST-His-tag-SUMO-NTD (amino acids 1-84); GST-His-tag-SUMO (N, cleaved yes); made in house; host or cells: Escherichia coli Lemo21(DE3)
T1 sequence (Q9UPI3 1-84): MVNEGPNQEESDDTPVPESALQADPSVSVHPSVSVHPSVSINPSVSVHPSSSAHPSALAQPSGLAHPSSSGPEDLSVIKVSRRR
Description: Gel-filtration assay. Purified NTD (200 μM) was incubated with freshly prepared heme (150 μM) in a 1 mL reaction containing 5% DMSO, 25 mM HEPES-NaOH pH 7.8, and 10 mM NaCl. The solution was run over Superdex 75 (24 mL) gel-filtration column at 0.3 mL/min rate using AKTA-FPLC. Absorbance was monitored at 230, 380, and 415 nm. 2 mL injection volume was subtracted from the final elution volume. Solution containing dissolved hemin in the reaction buffer without the NTD protein aggregated on top of the Superdex 75 column, thus this control was avoided in our experiments.

SERCA2b = SERCA2b protein level by Western blotting, 4B8^FL cells; assay type: cell-based, human; conditions: 40 μM heme for one hour, reduction by MFSD7C^FL expression
Description: FIGS. 5A-5F show MFSD7C and heme regulate thermogenesis through SERCA2b in THP-1 cells. […] 30 hours later, MG132 was added into half of the cells and the other half was not treated. Another 35 hours later, some cells were treated with 40 μM heme for 1 hour before lysis. Cell lysates were immunoprecipitated with anti-FLAG antibody, and eluted, followed by anti-HA immunoprecipitation and elution. Total cell lysate and elute were subjected to Western blotting and probed with anti-SERCA2b or anti-MFSD7C antibodies. Shown are representative data from one of three experiments. […] 24 hrs later, cells were either not treated or treated with 10 μM MG132 for either 6 or 12 hours. The cells were lysed and subjected to FLAG pull-down and blotted with anti-MFSD7C, anti-SERCA2b and anti-ubiquitin antibodies. Shown are representative data from one of three experiments. […] Parental THP-1 cells were either not treated or treated with heme before lysis. Shown are representative data from one of four experiments. […] Shown are representative data from one of two experiments. […] Cells were washed and treated with 40 μM heme for one hour before flow cytometry. Representative FPT histograms from one of three experiments are shown. […] Shown are representative FPT histograms from one of three experiments.
Endogenous protein extraction. […]

4B8^FL cells = experiment: OCR and ECAR (Seahorse) in 4B8 cells complemented with full length MFSD7C; assay type: cell-based, human; conditions: heme 1 hour
Description: FIGS. 4A-4H show NTD of MFSD7C mediates heme effect on mitochondrial respiration. FIGS. 4A-4C show comparison of basal OCR (FIG. 4A), maximal OCR (FIG. 4B) and ECAR (FIG. 4C) of THP-1, 4B8, and 4B8^FL and 4B8^ΔN cells treated with vehicle or heme for 1 hour (n=18 separate experiments). […] Cells were incubated with FPT for 6 hrs, washed and reseeded in poly-lysine coated glass bottom dishes. After cells attached to the glass, medium containing 40 μM heme was added. Cells in the same field were imaged immediately and again 1 hour later. Relative FPT fluorescent intensities, normalized to THP-1, from three experiments are shown. (n=3 independent experiments). […] THP-1, 4B8, 4B8^FL and 4B8^ΔN cells were treated with vehicle or heme for 1 hour and MMP was measured by using JC-10 Mitochondrial Membrane Potential Assay Kit followed by flow cytometry. […] Shown are representative Western blotting data (FIG. 4G) and quantification of band intensities from n=3 independent experiments (FIG. 4H). P-values were calculated using two-way ANOVA (*p<0.05, **p<0.01, ***p<0.005). […]
Measurements of OCR, ECAR, and MMP. Oxygen consumption rate (OCR) and extracellular acidification rate (ECAR) were measured using XF96e Seahorse Extracellular Flux Analyzer per manufacturer's protocol. […]

C=CC1=C(C)c2cc3[n-]c(cc4[n-]c(cc5nc(cc1n2)C(C)=C5C=C)c(C)c4CCC(=O)O)c(CCC(=O)O)c3C.[Fe+2] [heme]
co-elution in gel-filtration chromatography (NTD of human MFSD7C): co-eluted with the NTD
SERCA2b level (SERCA2b): restored
ECAR (4B8^FL cells): increased
OCR (4B8^FL cells): increased
